Data: patent US20260015350A1, “AZAQUINAZOLINE PAN-KRAS INHIBITORS” (Mirati Therapeutics, Inc., priority 2022, published 2026)

What was measured:
KRas^G12D = target: T1, KRas^G12D (Homo sapiens, UniProt P01116, G12D); assay: KRas binding assay (TR-FRET tracer displacement), KRas G12D
T1 construct: Biotinylated KRas (corresponding to amino acids 1-169, produced at Accelegan Inc.); biotin (biotinylated); purchased Accelegan Inc

[1] = test system: KRas-mediated phosphorylation of ERK in HCT116 cells; assay: Inhibition of KRas-mediated phosphorylation of ERK (Cisbio HTRF pERK), HCT116 cells; format: cell-based; settings: for IC50 / inhibition at 0.1 µM: Homo sapiens; for IC50: HCT-116, HTRF pERK; for inhibition at 0.1 µM: HCT-116, 3 h
How it was run: (§1)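 Compound treatment lasts 3 hrs on 6,000 seeded cells, testing 10 doses from a 10 uM top concentration in 3-fold decrements at 0.8% final DMSO. Trametinib at 0.2 uM defines the Min signal. Detection is HTRF on cold-lysed cell extracts.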

[2] = test system: KRas-mediated phosphorylation of ERK in MKN1 cells; assay: Inhibition of KRas-mediated phosphorylation of ERK (Cisbio HTRF pERK), MKN1 cells; format: cell-based; settings: Homo sapiens, MKN-1
How it was run: (§2)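 HTRF pERK read-out; 6,000 cells/well, RPMI_10% FBS, overnight 37° C./5% CO2; 4 h covered incubation at RT before reading.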

[3] = test system: KRas-mediated phosphorylation of ERK in PSN1 cells; assay: Inhibition of KRas-mediated phosphorylation of ERK (Cisbio HTRF pERK), PSN1 cells; format: cell-based; settings: Homo sapiens
How it was run: as §2

[4] = test system: KRas-mediated phosphorylation of ERK in H460 cells; assay: Inhibition of KRas-mediated phosphorylation of ERK (Cisbio HTRF pERK), H460 cells; format: cell-based; settings: for IC50 / inhibition at 0.1 µM: Homo sapiens; for IC50: NCI-H460, HTRF pERK; for inhibition at 0.1 µM: NCI-H460, 3 h
How it was run: (§3)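 Min control wells contained 0.2 uM Trametinib, while test compounds ran as 10 doses (3-fold, top 10 uM; 0.8% DMSO final) on cells for 3 hrs. After 40 mins lysis at 4° C, lysates were probed with HTRF antibodies for 2 hrs at room temperature.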

KRas^G12R = target: T2, KRas^G12R (Homo sapiens, UniProt P01116, G12R); assay: KRas binding assay (TR-FRET tracer displacement), KRas G12R
T2 construct: Biotinylated KRas (corresponding to amino acids 1-169, produced at Accelegan Inc.); biotin (biotinylated); purchased Accelegan Inc

[5] = test system: KRas-mediated phosphorylation of ERK in A549 cells; assay: Inhibition of KRas-mediated phosphorylation of ERK (Cisbio HTRF pERK), A549 cells; format: cell-based; settings: for IC50: HTRF pERK
How it was run: as §1

KRas^G12V = target: T3, KRas^G12V (Homo sapiens, UniProt P01116, G12V); assay: KRas binding assay (TR-FRET tracer displacement), KRas G12V
T3 construct: Biotinylated KRas (corresponding to amino acids 1-169, produced at Accelegan Inc.); biotin (biotinylated); purchased Accelegan Inc

[6] = test system: KRas-mediated phosphorylation of ERK in H727 cells; assay: Inhibition of KRas-mediated phosphorylation of ERK (Cisbio HTRF pERK), H727 cells; format: cell-based; settings: for IC50: HTRF pERK
How it was run: as §3

[7] = test system: KRas-mediated phosphorylation of ERK in H358 cells; assay: Inhibition of KRas-mediated phosphorylation of ERK (Cisbio HTRF pERK), H358 cells; format: cell-based; settings: for IC50: NCI-H358, HTRF pERK
How it was run: as §3

[8] = test system: KRas-mediated phosphorylation of ERK in AsPC-1 cells; assay: Inhibition of KRas-mediated phosphorylation of ERK (Cisbio HTRF pERK), AsPC-1 cells; format: cell-based; settings: for IC50: HTRF pERK
How it was run: as §3

[9] = Homo sapiens, NCI-H727, H727 cells
[10] = Homo sapiens, ASPC1, AsPC-1 cells
[11] = single point, 100 nM compound, 3 hrs, 0.1 µM
[12] = single point, 100 nM compound, 3 hrs

T2 sequence (P01116 1-169 isoform P01116-2 G12R): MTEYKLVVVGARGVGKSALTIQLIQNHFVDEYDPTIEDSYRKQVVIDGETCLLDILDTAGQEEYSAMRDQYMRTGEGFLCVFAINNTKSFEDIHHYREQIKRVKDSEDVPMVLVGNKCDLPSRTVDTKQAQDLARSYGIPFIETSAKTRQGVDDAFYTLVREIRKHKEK
T1 sequence (P01116 1-169 isoform P01116-2 G12D): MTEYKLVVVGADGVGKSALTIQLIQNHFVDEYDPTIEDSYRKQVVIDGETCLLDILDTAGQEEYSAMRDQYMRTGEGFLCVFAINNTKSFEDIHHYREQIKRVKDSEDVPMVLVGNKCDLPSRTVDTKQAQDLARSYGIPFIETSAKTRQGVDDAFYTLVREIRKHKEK
T3 sequence (P01116 1-169 isoform P01116-2 G12V): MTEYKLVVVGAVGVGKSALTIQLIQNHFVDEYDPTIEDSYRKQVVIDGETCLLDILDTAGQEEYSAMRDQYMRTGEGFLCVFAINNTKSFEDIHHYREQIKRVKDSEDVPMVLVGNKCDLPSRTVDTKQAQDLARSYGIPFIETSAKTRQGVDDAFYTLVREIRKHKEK

Row | Structure (SMILES) | IC50 (KRas^G12D) [nM] | IC50 [1] [nM] | IC50 [2] [nM] | IC50 [3] [nM] | IC50 [4] [nM] | IC50 (KRas^G12R) [nM] | IC50 ([5]; Homo sapiens) [nM] | IC50 (KRas^G12V) [nM] | IC50 [6, 9] [nM] | IC50 ([7]; Homo sapiens) [nM] | IC50 [8, 10] [nM] | other results
1 | CCc1c(F)ccc2cc(O)cc(-c3ncc4c(N5CC6CCC(CC(=O)N(C)C)(C6)C5)nc(OC[C@@]56CCCN5C[C@H](F)C6)nc4c3F)c12 (stereo partly drawn) [Example 911, 2-(3-(7-(8-ethyl-7-fluoro-3-hydroxynaphthalen-1-yl)-8-fluoro-2-(((2R,7aS)-2-fluorotetrahydro-1H-pyrrolizin-7a(5H)-yl)methoxy)pyrido[4,3-d]pyrimidin-4-yl)-3-azabicyclo[3.2.1]octan-1-yl)-N,N-dimethylacetamide] | 11 | 231 | 17 | > 10000 | 108 | 10 | 226 | 3 | 527 | 114 | 526 | 
2 | CCCCN(CCCC)C(=O)OC[C@@H]1CC[C@@]2(COc3nc(N4CCC[C@@](C)(O)C4)c4cnc(-c5cc(O)cc6ccc(F)c(CC)c56)c(F)c4n3)CCCN12 [Example 873, ((3S,7aR)-7a-(((7-(8-ethyl-7-fluoro-3-hydroxynaphthalen-1-yl)-8-fluoro-4-((R)-3-hydroxy-3-methylpiperidin-1-yl)pyrido[4,3-d]pyrimidin-2-yl)oxy)methyl)hexahydro-1H-pyrrolizin-3-yl)methyl dibutylcarbamate] | 7 | 325 | 198 | > 10000 | 194 | 12 | 135 | 7 | 408 | 149 | 93 | 
3 | CCc1c(F)ccc2cc(O)cc(-c3ncc4c(N5CCCn6nc(S(=O)(=O)N(C)C)cc6C5)nc(OC[C@@]56CCCN5C[C@H](F)C6)nc4c3F)c12 [Example 685, 5-(7-(8-ethyl-7-fluoro-3-hydroxynaphthalen-1-yl)-8-fluoro-2-(((2R,7aS)-2-fluorohexahydro-1H-pyrrolizin-7a-yl)methoxy)pyrido[4,3-d]pyrimidin-4-yl)-N,N-dimethyl-5,6,7,8-tetrahydro-4H-pyrazolo[1,5-a][1,4]diazepine-2-sulfonamide] | < 2 | 359 | 9 | > 10000 | 188 | 6 | 1090 | 8 | 1670 |  | 245 | 
4 | CCc1c(F)ccc2cc(O)cc(-c3ncc4c(N5CCCc6nc(C(=O)N(C)C)ccc6C5)nc(OC[C@@]56CCCN5C[C@H](F)C6)nc4c3F)c12 [Example 666, 6-(7-(8-ethyl-7-fluoro-3-hydroxynaphthalen-1-yl)-8-fluoro-2-(((2R,7aS)-2-fluorohexahydro-1H-pyrrolizin-7a-yl)methoxy)pyrido[4,3-d]pyrimidin-4-yl)-N,N-dimethyl-6,7,8,9-tetrahydro-5H-pyrido[3,2-c]azepine-2-carboxamide] | < 2 |  | 18 | > 10000 |  | < 2 | 207 | 2 | 320 |  | 184 | inhibition at 0.1 µM [1, 12]: 24%; inhibition at 0.1 µM [4, 12]: 59%
5 | CCc1c(F)ccc2cc(O)cc(-c3ncc4c(N5CCCC6(CC(=O)N6)C5)nc(OC[C@]56CCCN5[C@H](COC(=O)N(C)C)CC6)nc4c3F)c12 (stereo partly drawn) [Example 715, ((3S,7aR)-7a-(((7-(8-ethyl-7-fluoro-3-hydroxynaphthalen-1-yl)-8-fluoro-4-(2-oxo-1,6-diazaspiro[3.5]nonan-6-yl)pyrido[4,3-d]pyrimidin-2-yl)oxy)methyl)hexahydro-1H-pyrrolizin-3-yl)methyl dimethylcarbamate] | 4 |  | 43 | 3620 |  | 4 | 344 | 2 | 153 |  | 97 | inhibition at 0.1 µM [1, 12]: 8%; inhibition at 0.1 µM [4, 12]: 42%
6 | CCc1c(F)ccc2cc(O)cc(-c3ncc4c(N5CCCC6(CNS(=O)(=O)C6)C5)nc(OC[C@@]56CCCN5C[C@H](F)C6)nc4c3F)c12 (stereo partly drawn) [Example 644, 7-(7-(8-ethyl-7-fluoro-3-hydroxynaphthalen-1-yl)-8-fluoro-2-(((2R,7aS)-2-fluorohexahydro-1H-pyrrolizin-7a-yl)methoxy)pyrido[4,3-d]pyrimidin-4-yl)-2-thia-3,7-diazaspiro[4.5]decane 2,2-dioxide] | 3 | 411 | 10 | 2620 | 160 | < 2 | 299 | < 2 | 340 |  | 147 | 
7 | CCc1c(F)ccc2cc(O)cc(-c3ncc4c(NCc5cc(C(=O)N(C)C)n(C(F)F)n5)nc(OC[C@@]56CCCN5C[C@H](F)C6)nc4c3F)c12 [Example 662, 1-(difluoromethyl)-3-(((7-(8-ethyl-7-fluoro-3-hydroxynaphthalen-1-yl)-8-fluoro-2-(((2R,7aS)-2-fluorohexahydro-1H-pyrrolizin-7a-yl)methoxy)pyrido[4,3-d]pyrimidin-4-yl)amino)methyl)-N,N-dimethyl-1H-pyrazole-5-carboxamide] | 3 |  | 57 | > 10000 |  | 3 |  | < 2 | 274 |  | 837 | inhibition at 0.1 µM ([5]; Homo sapiens, A549, 3 h, single point, 100 nM compound, 3 hrs): 22%; inhibition at 0.1 µM ([7]; Homo sapiens, NCI-H358, 3 h, single point, 100 nM compound, 3 hrs): 22%

Now those with a lower IC50 [2], led by results:

Row | IC50 (KRas^G12D) [nM] | IC50 [1] [nM] | IC50 [2] [nM] | IC50 [3] [nM] | IC50 [4] [nM] | IC50 (KRas^G12R) [nM] | IC50 ([5]; Homo sapiens) [nM] | IC50 (KRas^G12V) [nM] | IC50 [6, 9] [nM] | IC50 ([7]; Homo sapiens) [nM] | IC50 [8, 10] [nM] | Structure (SMILES) | other results
8 |  | 504 | 3 | > 10000 | 96 |  | 136 |  | 240 | 82 | 213 | CCc1c(F)ccc2cc(O)cc(-c3ncc4c(N5CCCCC5)nc(OC[C@@]56CCCN5C[C@H](F)C6)nc4c3F)c12 [Example 900, 5-ethyl-6-fluoro-4-(8-fluoro-2-(((2R,7aS)-2-fluorotetrahydro-1H-pyrrolizin-7a(5H)-yl)methoxy)-4-(piperidin-1-yl)pyrido[4,3-d]pyrimidin-7-yl)naphthalen-2-ol] | 
9 | 7 | 24 | 1 | > 10000 | 5 | < 2 | 4 | < 2 |  | 3 |  | CCc1c(F)ccc2cc(O)cc(-c3ncc4c(N5CC6CCC(C5)C6C#N)nc(OC[C@@]56CCCN5C[C@H](F)C6)nc4c3F)c12 (single isomer, unassigned) [Example 561] | Inhibition (HTRF % at 100 nM) of KRas-mediated Phosphorylation of ERK, HCT116 [1, 11]: 63%; Inhibition (HTRF % at 100 nM) of KRas-mediated Phosphorylation of ERK, H460 [4, 11]: 99%; Inhibition (HTRF % at 100 nM) of KRas-mediated Phosphorylation of ERK, A549 [5, 11]: 103%; IC50 ([6]; H727 cells): 13 nM; Inhibition (HTRF % at 100 nM) of KRas-mediated Phosphorylation of ERK, H727 ([6]; single point, 100 nM compound, 3 hrs, H727 cells, 0.1 µM): 74%; Inhibition (HTRF % at 100 nM) of KRas-mediated Phosphorylation of ERK, H358 [7, 11]: 99%; IC50 ([8]; AsPC-1 cells): 80 nM; Inhibition (HTRF % at 100 nM) of KRas-mediated Phosphorylation of ERK, AsPC-1 ([8]; single point, 100 nM compound, 3 hrs, AsPC-1 cells, 0.1 µM): 30%
10 | < 2 | 24 | 1 | 812 | 10 | 3 | 23 | < 2 | 29 | 8 | 13 | C[C@@H]1C[C@@H]1c1c(Cl)cc(O)cc1-c1ncc2c(N3CCC[C@@](C)(O)C3)nc(OC[C@@]34CCCN3C[C@H](F)C4)nc2c1F [Example 805, (R)-1-(7-(3-chloro-5-hydroxy-2-((1S,2R)-2-methylcyclopropyl)phenyl)-8-fluoro-2-(((2R,7aS)-2-fluorotetrahydro-1H-pyrrolizin-7a(5H)-yl)methoxy)pyrido[4,3-d]pyrimidin-4-yl)-3-methylpiperidin-3-ol] | 
